Some test systems named below: SNB-19 CNS; U251 CNS; SF-295 CNS; SF-539 CNS; OVCAR-4 ovarian; SN12C renal; HOP-92 NSCLC; OVCAR-3 ovarian; A498 renal; COLO 205 colon.
Holding throughout (assay): growth of human tumour cells (NCI), 48 h

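The compound was tested at five concentrations on cells cultured in 96-well plates, with a 48-hour exposure period. TGI marks complete inhibition of growth.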 Bounds are passed on as bounds.

For the compound `CNC(=O)OCC1=C(COC(=O)NC)CN(c2ccccc2)C1`, the TGI in the assay on SNB-19 CNS, in the assay with U251 CNS, in the assay on SF-295 CNS, in the assay with SF-539 CNS, with OVCAR-4 ovarian and in the assay on SN12C renal was > 100 µM in each case. The TGI with HOP-92 NSCLC, with OVCAR-3 ovarian, in the assay on A498 renal and in the assay with COLO 205 colon was > 100 µM throughout.

As to `C=C(CCC(C(=O)O)C1CCC2(C)C3=C(CCC12C)C1(C)CCC(O)C(C)(C)C1CC3)C(C)C` (stereo not given), the TGI in the assay on SNB-19 CNS was > 100 µM; in the assay with U251 CNS it was 72.8 µM; in the assay on SF-295 CNS, > 100 µM; in the assay with SF-539 CNS, > 100 µM; in the assay with OVCAR-4 ovarian, > 100 µM; with SN12C renal, > 100 µM. Besides, the TGI with HOP-92 NSCLC is > 100 µM; in the assay on OVCAR-3 ovarian, > 100 µM; with A498 renal it was 75.2 µM; in the assay on COLO 205 colon it was > 100 µM.

In the case of `CC(C)[Si]1(C(C)C)OCC2OC(n3cnc4c(N)ncnc43)C(N)C2O[Si](C(C)C)(C(C)C)O1` (stereo not given), the TGI in the assay on SNB-19 CNS is 97.5 µM; in the assay with U251 CNS it was 35.8 µM; in the assay on SF-295 CNS it was 21.5 µM; in the assay on SF-539 CNS, 24.4 µM; in the assay on OVCAR-4 ovarian, > 100 µM; in the assay on SN12C renal, 27.9 µM. Further, the TGI was 33 µM with HOP-92 NSCLC, 20.6 µM in the assay on OVCAR-3 ovarian, 45.5 µM in the assay on A498 renal and 23.9 µM in the assay with COLO 205 colon.

In the case of `O=C(Cc1nc2ccc([N+](=O)[O-])cc2[nH]c1=O)C(=O)Nc1cc(Cl)c(Cl)cc1Cl`, the TGI in the assay on SNB-19 CNS, in the assay on U251 CNS, with SF-295 CNS, in the assay with SF-539 CNS, in the assay with OVCAR-4 ovarian and in the assay on SN12C renal was > 100 µM in each case. The TGI in the assay on HOP-92 NSCLC, in the assay with OVCAR-3 ovarian, with A498 renal and in the assay with COLO 205 colon was > 100 µM in each case.

For `COc1cc(CC(=O)c2ccc3c(c2)OCO3)cc(OC)c1OC`, the TGI in the assay with SNB-19 CNS, in the assay on U251 CNS, with SF-295 CNS, with SF-539 CNS, in the assay with OVCAR-4 ovarian and with SN12C renal was > 100 µM in each case. Besides, the TGI in the assay with HOP-92 NSCLC, in the assay with OVCAR-3 ovarian, in the assay with A498 renal and with COLO 205 colon was > 100 µM each time.

As for `CSc1nc(Br)nc2c1ncn2C1CC(Oc2ccc(C)cc2)C(COc2ccc(C)cc2)O1` (stereo not given), the TGI was 73.8 µM in the assay on SNB-19 CNS; > 100 µM in the assay on U251 CNS; > 100 µM in the assay on SF-295 CNS; > 100 µM in the assay on SF-539 CNS; > 100 µM with OVCAR-4 ovarian; > 100 µM in the assay on SN12C renal. In addition, the TGI in the assay with HOP-92 NSCLC, with OVCAR-3 ovarian, with A498 renal and with COLO 205 colon was > 100 µM throughout.

As to `COc1ccc(C=O)cc1Oc1ccc(C[C@H]2c3c(cc(OC)c4c3Oc3cc5c(cc3O4)CCN(C)C5=O)CCN2C)cc1`, the TGI in the assay with SNB-19 CNS amounted to 30.2 µM; in the assay with U251 CNS, 22.8 µM; in the assay on SF-295 CNS, 16.3 µM; with SF-539 CNS it was 18.3 µM; in the assay with OVCAR-4 ovarian, 17.7 µM; in the assay on SN12C renal it was 43 µM. Besides, the TGI in the assay with HOP-92 NSCLC is 13.7 µM; with OVCAR-3 ovarian, 15.4 µM; with A498 renal it was > 50 µM; with COLO 205 colon, > 50 µM.

`Fc1nc(F)nc(-c2c3ccccc3c3n2CCS3)n1`: the TGI with SNB-19 CNS was > 100 µM; with U251 CNS, 92.7 µM; in the assay with SF-295 CNS it was > 100 µM; with SF-539 CNS it was > 100 µM; with OVCAR-4 ovarian, > 100 µM; with SN12C renal, > 100 µM. The TGI in the assay with HOP-92 NSCLC, in the assay on OVCAR-3 ovarian, in the assay on A498 renal and in the assay with COLO 205 colon was > 100 µM throughout.

For `O=C(O)CCCc1nc2c(n1-c1ccccc1)C(=O)c1ccccc1C2=O`, the TGI is > 100 µM in the assay on SNB-19 CNS; > 100 µM in the assay with U251 CNS; > 100 µM in the assay with SF-295 CNS; > 100 µM in the assay with SF-539 CNS; 76.2 µM in the assay with OVCAR-4 ovarian; > 100 µM in the assay on SN12C renal. The TGI in the assay with HOP-92 NSCLC was > 100 µM; in the assay on OVCAR-3 ovarian, 82.7 µM; in the assay with A498 renal, > 100 µM; with COLO 205 colon, > 100 µM.

In the case of `CCCCCCCCC(=O)NCCCNCCCNC(=O)CCCCCCCC`, the TGI in the assay on SNB-19 CNS was 35.9 µM; with U251 CNS it was 8.92 µM; in the assay with SF-295 CNS, 14.2 µM; in the assay with SF-539 CNS it was 29.9 µM; with OVCAR-4 ovarian, 29.9 µM; with SN12C renal, 16.3 µM. Moreover, the TGI in the assay with HOP-92 NSCLC worked out at 14.1 µM; in the assay with OVCAR-3 ovarian it was 30.5 µM; in the assay with A498 renal it was 32.1 µM; in the assay with COLO 205 colon, 9.57 µM.

Turning to `COc1ccccc1OC/C(N=Cc1ccncc1)=N/NC(=O)c1ccncc1`, the TGI with SNB-19 CNS, in the assay with U251 CNS, with SF-295 CNS, in the assay with SF-539 CNS, in the assay with OVCAR-4 ovarian and in the assay on SN12C renal was > 100 µM throughout. Further, the TGI in the assay on HOP-92 NSCLC, in the assay with OVCAR-3 ovarian, in the assay on A498 renal and in the assay with COLO 205 colon was > 100 µM throughout.

For the compound `C[C@@H](C[C@@H](O)[C@H](O)C(C)(C)O)[C@H]1CC=C2[C@]3(C)[C@H](O)C[C@H]4C(C)(C)[C@H](O)CC[C@]4(C)[C@H]3CC[C@@]21C`, the TGI was determined as 32.7 µM in the assay on SNB-19 CNS; 32.1 µM in the assay with U251 CNS; 28.6 µM in the assay on SF-295 CNS; 35.7 µM in the assay on SF-539 CNS; 27.5 µM with OVCAR-4 ovarian; 31 µM in the assay with SN12C renal. Besides, the TGI came to 27.1 µM in the assay on HOP-92 NSCLC, 26.2 µM in the assay with OVCAR-3 ovarian, 28.5 µM in the assay on A498 renal and 28.5 µM in the assay with COLO 205 colon.

As to `O=C(O)c1ccccc1-c1ccccc1C(=O)c1ccccc1`, the TGI in the assay on SNB-19 CNS, in the assay on U251 CNS, in the assay with SF-295 CNS, in the assay with SF-539 CNS, in the assay on OVCAR-4 ovarian and in the assay with SN12C renal was > 100 µM in each case. In addition, the TGI in the assay on HOP-92 NSCLC, in the assay on OVCAR-3 ovarian, with A498 renal and in the assay on COLO 205 colon was > 100 µM each time.

The values above are taken from PubChem BioAssay (NCI).
